Assay results taken from patent US20040137022A1, “Manganese compositions for treating skin vascular tissue and combating skin pallor” (SOCIETE L'OREAL S.A., priority 2000, published 2004).

These substances were tested on endothelium-free isolated blood vessels. Details: concentration 10^−6 M; blood vessel rings contracted with noradrenalin 3×10^−7 M; 37° C.
Method: Activity of manganese (manganese gluconate, manganese chloride and manganese carbonate) in an ex vivo model of endothelium-free isolated blood vessels:
Blood vessel rings (or sections) were maintained in a 20 ml tank filled with survival fluid (Krebs Henseleit liquid) maintained at a temperature of 37° C. and oxygenated with a mixture of 95% oxygen and 5% CO2.
The variations in the tension of the blood vessel were then recorded with an initial preloading of several […].
The rings were contracted with noradrenalin at a concentration of 3×10^−7 M. On each preparation, the effect of the test products was evaluated at increasing and cumulative concentrations of from 3×10^−8 M to 10^−5 M.
With manganese carbonate [MnCO3] the “% of relaxation” value was 100%. With manganese chloride [MnCl2] the “% of relaxation” value was 100%. With manganese gluconate the “% of relaxation” value was 100%.
